From the NIST ThermoML archive (doi:10.1021/je300784x)
± gives the expanded uncertainty stated by the source.

Details: Liquid, Twin ebulliometer

CCOc1ccccc1O [2-ethoxyphenol]
vapor or sublimation pressure (380.22 K): 2.827 ± 0.015 kPa
vapor or sublimation pressure (383.28 K): 3.25 ± 0.015 kPa
vapor or sublimation pressure (386.29 K): 3.72 ± 0.015 kPa
vapor or sublimation pressure (391.94 K): 4.757 ± 0.015 kPa
vapor or sublimation pressure (397.4 K): 5.986 ± 0.015 kPa
vapor or sublimation pressure (402.92 K): 7.506 ± 0.016 kPa
vapor or sublimation pressure (408.63 K): 9.39 ± 0.016 kPa
vapor or sublimation pressure (414.5 K): 11.73 ± 0.016 kPa
vapor or sublimation pressure (418.79 K): 13.71 ± 0.016 kPa
vapor or sublimation pressure (423.31 K): 16.11 ± 0.016 kPa
vapor or sublimation pressure (428.48 K): 19.24 ± 0.017 kPa
vapor or sublimation pressure (436.26 K): 24.89 ± 0.018 kPa
vapor or sublimation pressure (445.61 K): 33.38 ± 0.019 kPa
vapor or sublimation pressure (457.01 K): 46.82 ± 0.023 kPa
vapor or sublimation pressure (486.03 K): 100.76 ± 0.025 kPa
